Here are results for 42 compounds from ChEMBL document CHEMBL4651402, “Screening of ~5500 FDA-approved drugs and clinical candidates for anti-SARS-CoV-2 activity” (2021).

Structures are written as SMILES.

The test system of this test is SARS-CoV-2. Description: microbe, parasite or virus in culture. Particulars: Severe acute respiratory syndrome coronavirus 2, Vero C1008, 48 h.

`CN(C)c1ccc(C(=C2C=CC(=[N+](C)C)C=C2)c2ccc(N(C)C)cc2)cc1` [GENTIAN VIOLET] showed an IC50 of more than 20 µM. The IC50 (read-out: pIC50 (converted)) is more than 20 µM.
`O=C1C=CC(=O)c2c(O)cccc21` [JUGLONE] returned an IC50 of more than 20 µM. In addition, the IC50 (read-out: pIC50 (converted)) was more than 20 µM.
Compound `CC(=O)OCC(=O)[C@@]1(O)CC[C@H]2[C@@H]3CCC4=CC(=O)C=C[C@]4(C)[C@@]3(Cl)[C@@H](Cl)C[C@@]21C` [DICHLORISONE ACETATE] returned an IC50 of more than 20 µM. For the same compound, the IC50 (read-out: pIC50 (converted)) was more than 20 µM.
`CC(=O)O[C@H]1C(=O)[C@@]2(C)C([C@H](OC(=O)c3ccccc3)[C@]3(O)C[C@H](OC(=O)[C@H](O)[C@@H](NC(=O)c4ccccc4)c4ccccc4)C(C)=C1C3(C)C)[C@]1(OC(C)=O)CO[C@@H]1C[C@@H]2O` (some centres undefined) gave an IC50 of more than 20 µM. The IC50 (read-out: pIC50 (converted)) was more than 20 µM.
`CCN1CC2CN(C)CC(C1)C2OC(=O)c1ccc(Cl)cc1` (centres undefined) showed an IC50 of more than 20 µM. Moreover, the IC50 (read-out: pIC50 (converted)) is more than 20 µM.
In the case of `CS(=O)(=O)c1ccc([C@@H](O)[C@@H](CO)NC(=O)C(Cl)Cl)cc1` [THIAMPHENICOL], the IC50 is more than 20 µM. Also, the IC50 (read-out: pIC50 (converted)) is more than 20 µM.
On to `C=CCN1CCC23c4c5ccc(O)c4OC2C(O)C=CC3C1C5` (centres undefined), for which the IC50 is more than 20 µM. The IC50 (read-out: pIC50 (converted)) was more than 20 µM.
Compound `O=C(O)CNC(=O)c1nc(Cl)c2ccccc2c1O` yielded an IC50 of more than 20 µM. Moreover, the IC50 (read-out: pIC50 (converted)) is more than 20 µM.
Compound `Cc1ccsc1C(=CCCN1CCC[C@@H](C(=O)O)C1)c1sccc1C` [TIAGABINE] had an IC50 of more than 20 µM. In addition, for the setting “read-out: pIC50 (converted)”, the IC50 is more than 20 µM.
`CC1=C(C(=O)Nc2ccccc2)SCCO1` [CARBOXIN] had an IC50 of more than 20 µM. In addition, the IC50 (read-out: pIC50 (converted)) is more than 20 µM.
Regarding `COc1cc(O)c(C(C)=O)c(OC)c1` [XANTHOXYLIN], the IC50 is more than 20 µM. Besides, the IC50 (read-out: pIC50 (converted)) was more than 20 µM.
As to `CC#CC(=O)N[C@H]1CCCN(c2c(F)cc(C(N)=O)c3[nH]c(C)c(C)c23)C1` [BRANEBRUTINIB], the IC50 is more than 20 µM. The IC50 (read-out: pIC50 (converted)) was more than 20 µM.
The compound `CC(=O)O[C@]1(C(C)=O)CC[C@H]2[C@@H]3C=C(C)C4=CC(=O)CC[C@@H]4[C@H]3CC[C@@]21C` [NOMEGESTROL ACETATE] gave an IC50 of more than 20 µM. In addition, the IC50 (read-out: pIC50 (converted)) is more than 20 µM.
As to `COC(=O)N/N=C/c1c[n+]([O-])c2ccccc2[n+]1[O-]` [CARBADOX], the IC50 was more than 20 µM. Besides, where the note is “read-out: pIC50 (converted)”, the IC50 is more than 20 µM.
The compound `CC(C)c1c(CN(C)C(C)Cc2ccccc2)n(C)n(-c2ccccc2)c1=O` (centres undefined) [FAMPROFAZONE] returned an IC50 of more than 20 µM. Further, the IC50 (read-out: pIC50 (converted)) was more than 20 µM.
In the case of `N[C@H](CO)C(=O)O` [(D)-SERINE], the IC50 is more than 20 µM. For the same compound, the IC50 (read-out: pIC50 (converted)) was more than 20 µM.
Compound `CC(C)Nc1nc2cc(Cl)c(Cl)cc2n1[C@H]1O[C@@H](CO)[C@H](O)[C@@H]1O` [MARIBAVIR] had an IC50 of more than 50.1 µM. Where the note is “read-out: pIC50 (converted)”, the IC50 was more than 50.1 µM.
On to `CCC1=C[C@@H]2CN3CCc4c([nH]c5ccccc45)[C@@](C(=O)OC)(C2)[C@H]13`, for which the IC50 was more than 20 µM. The IC50 (read-out: pIC50 (converted)) is more than 20 µM.
`CC12C=CC(=O)C=C1CCC1C3CC4Cc5ccccc5CC4(C(=O)CO)C3(C)CC(O)C12F` (centres undefined) displayed an IC50 of more than 20 µM. Moreover, the IC50 (read-out: pIC50 (converted)) was more than 20 µM.
With `CC(C)(C)C(=O)Oc1ccc2c(c1)O[C@H](c1ccc(OCCN3CCCCC3)cc1)C1=C2COc2cc(OC(=O)C(C)(C)C)ccc21`, the IC50 was more than 20 µM. The IC50 (read-out: pIC50 (converted)) is more than 20 µM.
On to `N#Cc1ccc(C(c2ccc(C#N)cc2)n2cncn2)cc1` [LETROZOLE], for which the IC50 is more than 20 µM. Moreover, for the setting “read-out: pIC50 (converted)”, the IC50 is more than 20 µM.
Consider `CCOC(=O)CN1CCN(C(=O)C=Cc2cc(OC)c(OC)c(OC)c2)CC1`, for which the IC50 is more than 20 µM. Further, under “read-out: pIC50 (converted)”, the IC50 is more than 20 µM.
In turn, `CC(C)(C)CC(C)(C)c1ccc(O)c(Cc2ccc(Cl)cc2Cl)c1` [CLOFOCTOL] yielded an IC50 of more than 20 µM. Moreover, the IC50 (read-out: pIC50 (converted)) is more than 20 µM.
As for `CC(=O)Oc1cc(C(C)C)c(OCCN(C)C)cc1C` [MOXISYLYTE], the IC50 is more than 20 µM. In addition, the IC50 (read-out: pIC50 (converted)) is more than 20 µM.
`CN1N=C(N)c2cn(C3OC(COP(=O)(O)O)C(O)C3O)c3ncnc1c23` (centres undefined) gave an IC50 of more than 20 µM. In addition, the IC50 (read-out: pIC50 (converted)) was more than 20 µM.
In the case of `CC(C(O)c1ccc(O)cc1)N1CCC(Cc2ccccc2)CC1` (centres undefined) [IFENPRODIL], the IC50 was more than 20 µM. In addition, the IC50 (read-out: pIC50 (converted)) is more than 20 µM.
`COc1cc(NS(C)(=O)=O)ccc1Nc1c2ccccc2nc2ccccc12` [AMSACRINE] yielded an IC50 of more than 20 µM. Besides, under “read-out: pIC50 (converted)”, the IC50 was more than 20 µM.
Turning to `CC(=O)[C@H]1CC[C@H]2[C@@H]3CC[C@H]4C[C@H](O)CC[C@]4(C)[C@H]3C(=O)C[C@]12C` [ALFAXALONE], the IC50 is more than 20 µM. Besides, the IC50 (read-out: pIC50 (converted)) was more than 20 µM.
As for `CN1CCCCC1c1ccc(-c2cccnc2)nc1` (centres undefined), the IC50 is more than 20 µM. Moreover, the IC50 (read-out: pIC50 (converted)) was more than 20 µM.
Compound `O=C(NC[C@H](O)CN1CCc2ccccc2C1)c1cc(NC2COC2)ncn1` came in with an IC50 of more than 20 µM. The IC50 (read-out: pIC50 (converted)) was more than 20 µM.
In the case of `CCCC(C)(COC(N)=O)COC(N)=O` [MEPROBAMATE], the IC50 is more than 20 µM. Further, the IC50 (read-out: pIC50 (converted)) was more than 20 µM.
Take `O[C@H]1[C@H]2c3cc4c(cc3CN3CCC(=C[C@@H]1O)[C@H]23)OCO4` [LYCORINE]: the IC50 is more than 20 µM. For the setting “read-out: pIC50 (converted)”, the IC50 was more than 20 µM.
On to `CC(=O)OC1CN2CCC1CC2` (centres undefined) [ACECLIDINE], for which the IC50 was more than 20 µM. Also, the IC50 (read-out: pIC50 (converted)) was more than 20 µM.
`CN(C)c1cccc2c(S(=O)(=O)Nc3ccc(NC(=O)C(C)(C)CO)cc3)cccc12` [TOMEGLOVIR] showed an IC50 of more than 20 µM. Further, the IC50 (read-out: pIC50 (converted)) is more than 20 µM.
With `CCCNCC(O)COc1ccccc1C(=O)CCc1ccccc1` (centres undefined) [PROPAFENONE], the IC50 was more than 20 µM. Further, the IC50 (read-out: pIC50 (converted)) is more than 20 µM.
The compound `CC(=O)NCCCCCC(=O)O` [ACEXAMIC ACID] gave an IC50 of more than 20 µM. Further, the IC50 (read-out: pIC50 (converted)) is more than 20 µM.
As for `CCOC(=O)[C@@H](N)Cc1ccc(-c2cc(O[C@H](c3ccc(Cl)cc3-n3ccc(C)n3)C(F)(F)F)nc(N)n2)cc1` [TELOTRISTAT ETHYL], the IC50 was more than 20 µM. Also, under “read-out: pIC50 (converted)”, the IC50 is more than 20 µM.
The compound `CC(=O)Nc1c(I)c(C(=O)N[C@H]2C(O)O[C@H](CO)[C@@H](O)[C@@H]2O)c(I)c(N(C)C(C)=O)c1I` (some centres undefined) [METRIZAMIDE] came in with an IC50 of more than 20 µM. Also, for the setting “read-out: pIC50 (converted)”, the IC50 is more than 20 µM.
In turn, `CN1CCN(c2ccc(OC(F)(F)F)c(Nc3ncc4c(n3)-c3c(c(C(N)=O)nn3CCO)CC4)c2)CC1` [ONVANSERTIB] had an IC50 of more than 20 µM. The IC50 (read-out: pIC50 (converted)) is more than 20 µM.
As to `CCc1cc(Cl)c(OC)c(C(=O)NC[C@@H]2CCCN2CC)c1O` [ETICLOPRIDE], the IC50 was more than 20 µM. The IC50 (read-out: pIC50 (converted)) was more than 20 µM.
As for `O=c1[nH]sc2cc(Cl)ccc12` [TICLATONE], the IC50 was more than 20 µM. Further, the IC50 (read-out: pIC50 (converted)) is more than 20 µM.
Compound `NCC(=O)O` [GLYCINE] showed an IC50 of more than 20 µM. In addition, for the setting “read-out: pIC50 (converted)”, the IC50 is more than 20 µM.
